Read-outs that look alike come from different tables or passages of the source. Positions of bridges follow the written chain, without caps; N, C: chain ends. Residues, ends and D or L forms follow the SMILES beside them. Chains are numbered I, II in the order given. No end group written: not given here.
Assays:
CTLL-2 cell line = conditions: for IC50: 72 h; for activity relative to the original peptide of WO2006/029578 (fold): IL-15-dependent proliferation of CTLL-2; for inhibitory effect of the peptide (in words): from the IC50 values of Table 1
Procedure: To evaluate the neutralizing capacity of the peptides of the present invention, serial dilutions of these peptides were carried out in 96-well plates (Costar, USA) in a 25 μL volume of RPMI medium (Gibco) supplemented at 10% with calf fetal serum (Gibco). […]
Incubation was carried out for 72 h at 37° C. and 5% CO2. […] MTT is reduced to red formazan by the mitochondrial dehydrogenase of live cells.

KiT225 cell line = experiment: IL-15-induced proliferation assay of the Kit225 cell line (MTT); assay type: cell-based, human; conditions: IL-15 300 pg/mL, serial dilutions of peptide; FIG. 3
Procedure: To evaluate the neutralizing capacity of the peptides of the present invention, serial dilutions of these peptides were carried out in 96-well plates (Costar, USA) in a 25 μL volume of RPMI medium (Gibco) supplemented at 10% with calf fetal serum (Gibco). Previously washed CTLL-2 or KiT225 cells were added at 5×10^3 cells/well and incubated for 30 min, and a saturating amount of 300 pg/mL IL-15 was added per well.
The antagonistic activity of the peptides was also evaluated, by varying the concentration of IL-15 at a fix concentration of 260 μM of each peptide. Incubation was carried out for 72 h at 37° C. and 5% CO2. Proliferation was assessed by using the MTT mitochondrial staining method (Cosman et al., Nature 1984, 312: 768-771). MTT is reduced to red formazan by the mitochondrial dehydrogenase of live cells. The IC50 was determined to each peptide at a IL-15 concentration of 300 pg/mL.

[1] = system: skin graft from a psoriasis patient; experiment: Xenotransplant SCID mice model of human psoriasis; assay type: in vivo; conditions: 10 mg/kg, alternate days for two weeks; for grade of parakeratosis in the psoriatic lesion / keratinocytes' cycles / number of inflammatory cells / thickness of the epidermis: H & E; for severity of the disease: biopsy one week after last injection
Procedure: Two to three months-old SCID mice were transplanted with a skin graft of 1.5 cm×1.5 cm from a psoriasis patient. Three weeks after, mice were randomized and distributed in three groups: placebo, mice treated with peptide SEQ ID No. 12 at 10 mg/kg of body weight and cyclosporin A at 10 mg/kg in alternate days for two weeks. One week after the last injection, mice were sacrificed and a 4 mm biopsy was taken from each xenotransplant. Biopsies were fixed in formalin for paraffin embedding, and were stained with hematoxilin and eosin dyes (H & E).

IL-15Rα subunit = IL-15Rα subunit (Homo sapiens, UniProt Q13261); conditions: IL-15 binding to IL-15Rα; cited from earlier work
Sequence of IL-15Rα subunit (Q13261 31-267): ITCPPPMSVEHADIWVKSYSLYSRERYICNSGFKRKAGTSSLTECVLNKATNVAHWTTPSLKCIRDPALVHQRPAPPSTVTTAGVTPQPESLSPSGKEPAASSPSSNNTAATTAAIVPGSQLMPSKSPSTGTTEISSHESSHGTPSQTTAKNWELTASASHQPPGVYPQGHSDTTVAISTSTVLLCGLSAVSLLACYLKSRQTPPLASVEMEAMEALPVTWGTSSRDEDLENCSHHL

human IL-15Rα = human IL-15Rα (Homo sapiens, UniProt Q13261); experiment: Competition ELISA, displacement of binding of IL-15 to IL-15Rα
Sequence of human IL-15Rα (Q13261 31-205 limits assumed): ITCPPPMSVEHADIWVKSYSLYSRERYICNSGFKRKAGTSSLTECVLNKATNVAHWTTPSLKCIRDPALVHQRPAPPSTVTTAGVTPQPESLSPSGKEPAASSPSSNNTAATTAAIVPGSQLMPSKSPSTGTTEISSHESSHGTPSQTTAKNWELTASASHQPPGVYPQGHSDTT
Procedure: Peptide binding to the IL15-Rα was characterized by ELISA. Briefly, 96-well plates were coated with purified IL-15 in phosphate buffered saline (PBS) and blocked with bovine albumin at 1% in PBS. Dilutions of each peptide were added to the wells and plates were incubated for 1 h at 37° C. The plates were washed with PBS-Tween 20 and incubated with an IL-15Rα-Fc for 1 h at 37° C. Plates were washed again with PBS-Tween 20 and further incubated an anti Fc-human IgG-peroxidase conjugate for 1 h at 37° C. After washing, the antigen-antibody reaction was run by adding the substrate and 3,3′,5,5′-Tetramethylbenzidine (TMB), and O.D. was read at 450 nm.

[2] = system: prostate cancer cell line PC-3; experiment: IL-15Rα-induced IL-6 and IL-8 mRNA expression in PC-3 cells (real time RT-PCR); assay type: cell-based; conditions: peptide 100 μg/mL, IL15-Rα 1 ng/mL
Procedure: The experiment was carried out in 24-well plates by incubating 1.5×10^6 cells with peptides SEQ ID No. 1 and SEQ ID No. 12 at 100 μg/mL and IL15-Rα (1 ng/mL), and also combinations of IL15-Rα and peptides SEQ ID No. 1 and SEQ ID No. 12.
The RNA was isolated by the TriReagent method (Sigma) and analyzed by measuring the O.D. 260/280 nm ratio and Agarose gel electrophoresis. The real time reverse transcription and polymerase chain reaction were carried out by using the Quantitect Reverse Transcription Kit and QuantiTect SYBR Green PCR (QIAGEN) in a Rotor Gene 6000 equipment.

[3] = system: synovial fluid cells of RA patients; experiment: IL-15-mediated TNFα production in synovial fluid cells of RA patients (ELISA); assay type: cell-based, human; conditions: peptide 50 μg/mL plus IL-15 60 ng/mL, 48 h; heading says peptide as a dimer; FIG. 6
Procedure: After obtaining a written informed consent, synovial fluid from RA patients was extracted and incubated with hyaluronidase at 10 μg per mL of fluid for 45 min at 37° C. Synovial fluid cells were obtained after centrifugation at 1200 rpm for 10 min.
Cells were incubated in 96-well plated at 2×10^5 cells per well with 50 μg/mL of peptide and 60 ng/mL of IL-15 and also a combination of peptide plus IL-15. After incubation for 48 h, supernatants were collected and stored at −70° C. until evaluation. The amount of TNFα was quantified by EL ISA (R&D DTA50).

[4] = system: CTLL-2 cell line and peripheral blood mononuclear cells (PBMC); conditions: CTLL-2 cell line and PBMC; cited from earlier work

CSCC[C@H](NC(=O)[C@H](C)NC(=O)[C@@H](NC(=O)[C@@H](NC(=O)[C@@H](N)CCCCN)C(C)C)[C@@H](C)O)C(=O)N[C@H](C(=O)N[C@@H](CSSC[C@H](NC(=O)[C@@H](NC(=O)[C@H](CCSC)NC(=O)[C@H](C)NC(=O)[C@@H](NC(=O)[C@@H](NC(=O)[C@@H](N)CCCCN)C(C)C)[C@@H](C)O)[C@@H](C)O)C(=O)N[C@@H](Cc1ccccc1)C(=O)N[C@@H](CC(C)C)C(=O)N[C@@H](CC(C)C)C(N)=O)C(=O)N[C@@H](Cc1ccccc1)C(=O)N[C@@H](CC(C)C)C(=O)N[C@@H](CC(C)C)C(N)=O)[C@@H](C)O [SEQ ID No. 12 dimer] (I: H-KVTAMTCFLL-NH2 / II: H-KVTAMTCFLL-NH2; disulfide I:7-II:7 (inferred); N-terminus assumed)
IC50 (CTLL-2 cell line): 8 µM | activity relative to the original peptide of WO2006/029578 (fold) (CTLL-2 cell line): 15 | activity of the dimer relative to the monomer (fold) (CTLL-2 cell line; dimer linked through the free Cys): seven times more active | inhibitory effect on IL-15-induced proliferation of Kit225 (KiT225 cell line): higher inhibitory effect | grade of parakeratosis in the psoriatic lesion [1]: lowered grade | keratinocytes' cycles [1]: significantly decreased | number of inflammatory cells [1]: significantly decreased | thickness of the epidermis [1]: significant reduction | severity of the disease [1]: reduction in the severity of the disease

IL-15: 14-15 kDa cytokine, T cell activating factor
Kd (IL-15Rα subunit): 10 pM

KATAMKCFLL-NH2 [KATAMKCFLL]
IC50 (CTLL-2 cell line): 130 µM

KVAAMKCFLL-NH2 [KVAAMKCFLL]
IC50 (CTLL-2 cell line): 130 µM

KVTAAKCFLL-NH2 [KVTAAKCFLL]
IC50 (CTLL-2 cell line): 130 µM

KVTAMECFLL
activity relative to the original peptide of WO2006/029578 (fold) (CTLL-2 cell line): ten-fold | inhibitory effect of the peptide (in words) (CTLL-2 cell line): loss of the inhibitory effect

KVTAMKAFLL
inhibitory effect of the peptide (in words) (CTLL-2 cell line): loss of the inhibitory effect | displacement of binding of IL-15 to IL-15Rα (human IL-15Rα; ELISA, IL-15 coated plate, IL-15Rα-Fc, FIG. 2): does not displace

KVTAMKCFAL-NH2 [KVTAMKCFAL]
IC50 (CTLL-2 cell line): 200 µM

KVTAMKCFLA-NH2 [KVTAMKCFLA]
IC50 (CTLL-2 cell line): 260 µM

KVTAMKCFLL-NH2 [KVTAMKCFLL, reference compound]
IC50 (CTLL-2 cell line): 130 µM

KVTAMKSFLL
inhibitory effect of the peptide (in words) (CTLL-2 cell line): loss of the inhibitory effect

KVTAMTCFLL-NH2 [KVTAMTCFLL]
IC50 (CTLL-2 cell line): 24.6 µM | activity relative to the original peptide of WO2006/029578 (fold) (CTLL-2 cell line; listed as Lys-Thr mutant): five-fold | antagonistic activity at varying IL-15 concentration (CTLL-2 cell line; fixed peptide concentration 260 μM, IL-15 75, 150, 300 pg/mL, FIG. 4): dependence of the antagonistic activity | inhibitory effect on IL-15-induced proliferation of Kit225 (KiT225 cell line): inhibitory effect depending on the concentration of the peptide | IL15-Rα-mediated transcription of IL-8 ([2]; FIG. 5A): inhibits transcription | IL15-Rα-mediated transcription of IL-6 ([2]; FIG. 5B): inhibits transcription | TNFα secretion [3]: inhibits TNFα secretion | grade of parakeratosis in the psoriatic lesion [1]: lowered grade | keratinocytes' cycles [1]: significantly decreased | number of inflammatory cells [1]: significantly decreased | thickness of the epidermis [1]: significant reduction | severity of the disease [1]: reduction in the severity of the disease | capacity to bind to the IL-15Rα (human IL-15Rα): retains the capacity to bind to the IL-15Rα

KVTAMTCYLL-NH2 [KVTAMTCYLL]
IC50 (CTLL-2 cell line): 57.7 µM

B1: 146B7: Genmab antibody specific for IL-15, targets the region interacting with IL-15Rγ (antibody, chains of the INN, looked up, V domains shown)
VH: EVQLVQSGAEVKKPGESLKISCKVSGYFFTTYWIGWVRQMPGKGLEYMGIIYPGDSDTRYSPSFQGQVTISADKSISTAYLQWSSLKASDTAMYYCARGGNWNCFDYWGQGTLVTVSS
VL: EIVLTQSPGTLSLSPGERATLSCRASQSVSSSYLAWYQQKPGQAPRLLIYGASRRATGIPDRFSGSGSGTDFTLTISRLEPEDFAVYYCQRYGSSHTFGQGTKLEIS
inhibition of IL-15-induced cell proliferation [4]: inhibit the IL-15-induced cell proliferation

Source: patent US8431524B2, “Peptide antagonist of interleukin-15 activity” (Centro de Ingenieria Genetica y Biotecnologia, priority 2008, dated 2013)
